From ChEMBL document CHEMBL4130348, “Structure-activity relationship investigation for benzonaphthyridinone derivatives as novel potent Bruton's tyrosine kinase (BTK) irreversible inhibitors” (Eur J Med Chem, 2017)

How the values were obtained:
[1] = target: T1, Tyrosine-protein kinase JAK3 (Homo sapiens, UniProt P52333); assay: Inhibition of recombinant GST-tagged human JAK3 expressed in baculovirus expression system using poly (4:1 Glu, Tyr) as substrate preincubated for 1 hr followed by substrate addition measured after 1 hr by ADP-glo assay
T1 sequence (P52333 whole entry): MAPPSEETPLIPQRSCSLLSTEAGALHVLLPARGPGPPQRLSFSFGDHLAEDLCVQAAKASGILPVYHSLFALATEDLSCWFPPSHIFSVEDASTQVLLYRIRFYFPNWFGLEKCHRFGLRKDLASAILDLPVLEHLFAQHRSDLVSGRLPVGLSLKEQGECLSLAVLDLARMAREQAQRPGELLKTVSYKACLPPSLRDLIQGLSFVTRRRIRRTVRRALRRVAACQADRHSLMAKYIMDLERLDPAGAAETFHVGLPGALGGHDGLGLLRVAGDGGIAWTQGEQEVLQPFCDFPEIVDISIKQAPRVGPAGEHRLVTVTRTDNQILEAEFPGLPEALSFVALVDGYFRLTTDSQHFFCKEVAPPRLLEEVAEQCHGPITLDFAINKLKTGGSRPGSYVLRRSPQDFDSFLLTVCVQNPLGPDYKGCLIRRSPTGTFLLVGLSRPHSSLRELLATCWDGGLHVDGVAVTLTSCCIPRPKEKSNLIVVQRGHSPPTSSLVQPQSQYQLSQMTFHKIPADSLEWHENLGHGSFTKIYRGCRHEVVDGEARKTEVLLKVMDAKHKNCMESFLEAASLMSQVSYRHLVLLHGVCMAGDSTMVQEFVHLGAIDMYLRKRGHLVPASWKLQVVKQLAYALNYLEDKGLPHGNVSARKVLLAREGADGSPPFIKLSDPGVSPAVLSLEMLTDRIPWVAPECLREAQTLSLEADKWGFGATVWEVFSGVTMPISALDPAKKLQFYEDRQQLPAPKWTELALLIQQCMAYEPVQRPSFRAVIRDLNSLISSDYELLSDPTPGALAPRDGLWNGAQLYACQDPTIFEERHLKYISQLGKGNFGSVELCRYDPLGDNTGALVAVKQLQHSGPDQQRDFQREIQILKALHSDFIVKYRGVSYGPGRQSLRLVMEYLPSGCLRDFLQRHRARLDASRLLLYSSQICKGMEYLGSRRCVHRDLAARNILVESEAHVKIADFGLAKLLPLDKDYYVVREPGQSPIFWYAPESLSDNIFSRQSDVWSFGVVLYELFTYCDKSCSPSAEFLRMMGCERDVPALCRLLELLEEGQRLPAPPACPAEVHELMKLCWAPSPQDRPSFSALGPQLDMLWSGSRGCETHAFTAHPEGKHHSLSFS

[2] = target: Tyrosine-protein kinase Blk (Homo sapiens, UniProt P51451); assay: Inhibition of recombinant full length His-tagged human BLK expressed in baculovirus expression system using poly (4:1 Glu, Tyr) as substrate preincubated for 1 hr followed by substrate addition measured after 1 hr by ADP-glo assay
Tyrosine-protein kinase Blk, sequence (P51451 whole entry): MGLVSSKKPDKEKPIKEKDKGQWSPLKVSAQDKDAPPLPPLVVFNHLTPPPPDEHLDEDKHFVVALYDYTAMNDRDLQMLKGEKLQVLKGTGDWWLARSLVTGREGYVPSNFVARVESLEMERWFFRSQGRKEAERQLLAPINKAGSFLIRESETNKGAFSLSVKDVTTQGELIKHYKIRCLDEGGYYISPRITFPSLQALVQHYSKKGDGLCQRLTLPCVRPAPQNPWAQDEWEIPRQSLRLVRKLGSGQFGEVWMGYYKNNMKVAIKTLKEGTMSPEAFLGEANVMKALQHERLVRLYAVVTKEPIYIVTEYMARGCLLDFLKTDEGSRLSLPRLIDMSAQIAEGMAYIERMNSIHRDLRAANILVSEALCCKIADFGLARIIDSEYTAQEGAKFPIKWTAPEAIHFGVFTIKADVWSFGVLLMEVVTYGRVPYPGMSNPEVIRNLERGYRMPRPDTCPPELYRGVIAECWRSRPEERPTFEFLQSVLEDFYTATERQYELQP

[3] = target: T2, Tyrosine-protein kinase BTK (Homo sapiens, UniProt Q06187); assay: Irreversible inhibition of recombinant full length His-tagged human BTK expressed in baculovirus expression system using poly (4:1 Glu, Tyr) as substrate assessed as ratio of Kinact to Ki preincubated for 2 to 60 mins followed by substrate addition measured after 1 hr by ADP-glo assay
T2 sequence (Q06187 whole entry): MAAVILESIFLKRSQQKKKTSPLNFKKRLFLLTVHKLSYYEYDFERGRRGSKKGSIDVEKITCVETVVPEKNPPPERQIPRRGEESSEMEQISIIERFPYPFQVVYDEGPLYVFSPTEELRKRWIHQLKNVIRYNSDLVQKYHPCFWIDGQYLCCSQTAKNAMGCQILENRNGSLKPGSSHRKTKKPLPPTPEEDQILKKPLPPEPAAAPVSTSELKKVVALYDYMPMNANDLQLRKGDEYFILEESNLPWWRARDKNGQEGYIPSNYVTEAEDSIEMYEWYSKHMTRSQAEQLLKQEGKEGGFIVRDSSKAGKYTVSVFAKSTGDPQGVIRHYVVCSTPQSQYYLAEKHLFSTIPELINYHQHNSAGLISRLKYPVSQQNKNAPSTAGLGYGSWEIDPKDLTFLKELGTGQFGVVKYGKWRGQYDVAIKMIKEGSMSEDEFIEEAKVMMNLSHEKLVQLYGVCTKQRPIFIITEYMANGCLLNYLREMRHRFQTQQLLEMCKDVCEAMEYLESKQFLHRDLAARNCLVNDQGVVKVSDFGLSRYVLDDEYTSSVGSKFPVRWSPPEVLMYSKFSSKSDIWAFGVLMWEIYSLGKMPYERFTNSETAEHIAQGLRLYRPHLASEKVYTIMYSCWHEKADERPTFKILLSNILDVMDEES

[4] = target: T2, Tyrosine-protein kinase BTK; assay: Irreversible inhibition of recombinant full length His-tagged human BTK expressed in baculovirus expression system using poly (4:1 Glu, Tyr) as substrate preincubated for 2 to 60 mins followed by substrate addition measured after 1 hr by ADP-glo assay
OCI-AML-3 = assay: Antiproliferative activity against human OCI-AML3 cells after 72 hrs by CellTiter-Glo assay; format: functional; conditions: OCI-AML-3, 72 h
Pfeiffer = assay: Antiproliferative activity against human Pfeiffer cells after 72 hrs by CellTiter-Glo assay; format: functional
LNCaP C4-2 = assay: Antiproliferative activity against human C4-2 cells after 72 hrs by CellTiter-Glo assay; format: functional; conditions: LNCaP C4-2, 72 h
CMK = assay: Antiproliferative activity against human CMK cells after 72 hrs by CellTiter-Glo assay; format: functional
[5] = target: Tyrosine-protein kinase JAK2 (Homo sapiens) (UniProt O60674); assay: Inhibition of TEL-fused JAK2 (unknown origin) expressed in mouse BA/F3 cells after 72 hrs by CellTiter-Glo assay; format: cell-based
Tyrosine-protein kinase JAK2 (Homo sapiens), sequence (O60674 whole entry, the tested form may be a part): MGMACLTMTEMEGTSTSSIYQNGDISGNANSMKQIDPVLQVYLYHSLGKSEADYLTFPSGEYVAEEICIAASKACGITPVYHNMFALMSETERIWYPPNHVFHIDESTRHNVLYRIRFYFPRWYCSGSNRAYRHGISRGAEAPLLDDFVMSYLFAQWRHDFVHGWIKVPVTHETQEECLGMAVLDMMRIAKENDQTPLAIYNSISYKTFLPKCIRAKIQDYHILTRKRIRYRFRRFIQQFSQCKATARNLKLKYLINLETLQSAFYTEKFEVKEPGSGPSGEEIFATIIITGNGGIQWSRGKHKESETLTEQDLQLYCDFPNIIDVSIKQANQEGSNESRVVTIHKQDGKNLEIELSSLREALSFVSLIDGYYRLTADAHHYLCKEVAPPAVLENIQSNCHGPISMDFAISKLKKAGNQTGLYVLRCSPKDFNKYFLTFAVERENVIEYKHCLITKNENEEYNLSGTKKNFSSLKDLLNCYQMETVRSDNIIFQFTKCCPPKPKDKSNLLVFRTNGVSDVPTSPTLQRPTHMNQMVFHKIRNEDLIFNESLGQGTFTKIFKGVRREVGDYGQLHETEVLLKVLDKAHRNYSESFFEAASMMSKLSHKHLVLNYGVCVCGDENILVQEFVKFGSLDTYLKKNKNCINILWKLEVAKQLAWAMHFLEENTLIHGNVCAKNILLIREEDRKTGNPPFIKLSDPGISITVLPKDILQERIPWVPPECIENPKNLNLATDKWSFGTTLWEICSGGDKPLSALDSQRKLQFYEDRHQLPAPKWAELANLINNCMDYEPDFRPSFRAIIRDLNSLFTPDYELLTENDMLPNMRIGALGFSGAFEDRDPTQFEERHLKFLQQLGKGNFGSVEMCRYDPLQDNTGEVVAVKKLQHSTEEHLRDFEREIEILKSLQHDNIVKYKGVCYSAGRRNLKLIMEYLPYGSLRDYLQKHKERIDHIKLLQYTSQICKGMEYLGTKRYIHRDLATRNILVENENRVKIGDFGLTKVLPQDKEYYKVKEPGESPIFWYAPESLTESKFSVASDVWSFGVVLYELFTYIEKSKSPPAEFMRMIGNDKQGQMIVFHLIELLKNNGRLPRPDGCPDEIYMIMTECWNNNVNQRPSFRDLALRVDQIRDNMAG

A-431 = assay: Antiproliferative activity against human A431 cells after 72 hrs by CellTiter-Glo assay; format: functional; conditions: A-431, 72 h
NOMO-1 = assay: Antiproliferative activity against human NOMO1 cells after 72 hrs by CellTiter-Glo assay; format: functional; conditions: NOMO-1, 72 h
SU-DHL-2 = assay: Antiproliferative activity against human SUDHL2 cells after 72 hrs by CellTiter-Glo assay; format: functional; conditions: SU-DHL-2, 72 h
[6] = target: Tyrosine-protein kinase JAK1 (Homo sapiens) (UniProt P23458); assay: Inhibition of TEL-fused JAK1 (unknown origin) expressed in mouse BA/F3 cells after 72 hrs by CellTiter-Glo assay; format: cell-based
Tyrosine-protein kinase JAK1 (Homo sapiens), sequence (P23458 whole entry, the tested form may be a part): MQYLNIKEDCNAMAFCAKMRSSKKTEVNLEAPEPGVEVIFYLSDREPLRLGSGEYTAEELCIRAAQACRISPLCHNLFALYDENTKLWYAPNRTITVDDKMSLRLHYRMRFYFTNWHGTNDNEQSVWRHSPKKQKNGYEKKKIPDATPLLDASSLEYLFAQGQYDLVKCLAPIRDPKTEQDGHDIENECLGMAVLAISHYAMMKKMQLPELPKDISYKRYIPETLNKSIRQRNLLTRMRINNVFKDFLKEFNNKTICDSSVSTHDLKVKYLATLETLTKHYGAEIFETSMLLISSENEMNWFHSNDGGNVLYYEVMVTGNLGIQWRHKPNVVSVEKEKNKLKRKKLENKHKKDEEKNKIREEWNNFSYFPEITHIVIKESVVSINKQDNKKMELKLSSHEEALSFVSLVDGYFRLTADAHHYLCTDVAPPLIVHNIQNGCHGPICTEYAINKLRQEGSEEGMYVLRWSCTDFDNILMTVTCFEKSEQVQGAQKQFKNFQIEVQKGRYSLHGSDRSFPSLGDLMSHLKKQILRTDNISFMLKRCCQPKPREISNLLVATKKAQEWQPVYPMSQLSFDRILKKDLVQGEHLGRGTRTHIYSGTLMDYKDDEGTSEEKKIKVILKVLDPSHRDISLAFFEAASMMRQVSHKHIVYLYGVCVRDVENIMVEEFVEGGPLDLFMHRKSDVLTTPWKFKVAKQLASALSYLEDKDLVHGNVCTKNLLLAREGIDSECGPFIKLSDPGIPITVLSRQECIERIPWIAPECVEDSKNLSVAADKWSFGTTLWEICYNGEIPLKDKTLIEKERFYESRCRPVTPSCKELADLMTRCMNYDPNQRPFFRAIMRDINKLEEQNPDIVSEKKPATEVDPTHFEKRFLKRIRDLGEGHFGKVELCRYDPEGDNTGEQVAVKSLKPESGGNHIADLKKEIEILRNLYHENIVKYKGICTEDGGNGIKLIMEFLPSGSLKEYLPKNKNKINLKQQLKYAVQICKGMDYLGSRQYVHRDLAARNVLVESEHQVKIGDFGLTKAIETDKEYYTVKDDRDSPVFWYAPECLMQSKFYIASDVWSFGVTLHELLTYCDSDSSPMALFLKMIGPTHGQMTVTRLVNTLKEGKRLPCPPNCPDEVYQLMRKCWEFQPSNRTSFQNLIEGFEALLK

NCI-H1975 = assay: Antiproliferative activity against human NCI-H1975 cells after 72 hrs by CellTiter-Glo assay; format: functional; conditions: NCI-H1975, 72 h
NALM-6 = assay: Antiproliferative activity against human NALM6 cells after 72 hrs by CellTiter-Glo assay; format: functional; conditions: NALM-6, 72 h
Z-138 = assay: Antiproliferative activity against human Z138 cells after 72 hrs by CellTiter-Glo assay; format: functional; conditions: Z-138, 72 h
NCI-H460 = assay: Antiproliferative activity against human NCI-H460 cells after 72 hrs by CellTiter-Glo assay; format: functional; conditions: NCI-H460, 72 h
U-937 = assay: Antiproliferative activity against human U937 cells after 72 hrs by CellTiter-Glo assay; format: functional; conditions: U-937, 72 h
[7] = Antiproliferative activity against human RV1 cells after 72 hrs by CellTiter-Glo assay; format: functional; conditions: RV-1, 72 h
HEL = assay: Antiproliferative activity against human HEL cells after 72 hrs by CellTiter-Glo assay; format: functional
A549 = assay: Antiproliferative activity against human A549 cells after 72 hrs by CellTiter-Glo assay; format: functional; conditions: A549, 72 h
MOLM-14 = assay: Antiproliferative activity against human MOLM14 cells after 72 hrs by CellTiter-Glo assay; format: functional; conditions: MOLM-14, 72 h
NB-4 = assay: Antiproliferative activity against human NB4 cells after 72 hrs by CellTiter-Glo assay; format: functional; conditions: NB-4, 72 h
U2932 = assay: Antiproliferative activity against human U2932 cells after 72 hrs by CellTiter-Glo assay; format: functional; conditions: U2932, 72 h
OCI-AML2 = assay: Antiproliferative activity against human OCI-AML2 cells after 72 hrs by CellTiter-Glo assay; format: functional; conditions: OCI-AML2, 72 h
[8] = Antiproliferative activity against mouse BA/F3 cells after 72 hrs by CellTiter-Glo assay; format: cell-based, BaF3
HCT-116 = assay: Antiproliferative activity against human HCT116 cells after 72 hrs by CellTiter-Glo assay; format: functional; conditions: HCT-116, 72 h
NAMALVA = assay: Antiproliferative activity against human NAMALWA cells after 72 hrs by CellTiter-Glo assay; format: functional
[9] = Antiproliferative activity against human MOLM16 cells after 72 hrs by CellTiter-Glo assay; format: functional; conditions: MOLM16, 72 h
JVM-2 = assay: Antiproliferative activity against human JVM2 cells after 72 hrs by CellTiter-Glo assay; format: functional; conditions: JVM-2, 72 h
HL-60 = assay: Antiproliferative activity against human HL60 cells after 72 hrs by CellTiter-Glo assay; format: functional; conditions: HL-60, 72 h
DU-145 = assay: Antiproliferative activity against human DU145 cells after 72 hrs by CellTiter-Glo assay; format: functional; conditions: DU-145, 72 h
NCI-H358 = assay: Antiproliferative activity against human NCI-H358 cells after 72 hrs by CellTiter-Glo assay; format: functional; conditions: NCI-H358, 72 h
[10] = target: Epidermal growth factor receptor (Homo sapiens) (UniProt P00533); assay: Inhibition of TEL-fused EGFR (unknown origin) expressed in mouse BA/F3 cells after 72 hrs by CellTiter-Glo assay; format: cell-based
Rec1 = assay: Antiproliferative activity against human Rec1 cells after 72 hrs by CellTiter-Glo assay; format: functional; conditions: Rec1, 72 h
HeLa = assay: Antiproliferative activity against human HeLa cells after 72 hrs by CellTiter-Glo assay; format: functional
[11] = test system: Epidermal growth factor receptor (Homo sapiens), P00533 [L858R,T790M]; assay: Inhibition of TEL-fused EGFR T790M/L858R mutant (unknown origin) expressed in mouse BA/F3 cells after 72 hrs by CellTiter-Glo assay; format: cell-based
Epidermal growth factor receptor (Homo sapiens), P00533 [L858R,T790M], sequence (P00533 whole entry T790M/L858R, looked up, the tested form may be a part): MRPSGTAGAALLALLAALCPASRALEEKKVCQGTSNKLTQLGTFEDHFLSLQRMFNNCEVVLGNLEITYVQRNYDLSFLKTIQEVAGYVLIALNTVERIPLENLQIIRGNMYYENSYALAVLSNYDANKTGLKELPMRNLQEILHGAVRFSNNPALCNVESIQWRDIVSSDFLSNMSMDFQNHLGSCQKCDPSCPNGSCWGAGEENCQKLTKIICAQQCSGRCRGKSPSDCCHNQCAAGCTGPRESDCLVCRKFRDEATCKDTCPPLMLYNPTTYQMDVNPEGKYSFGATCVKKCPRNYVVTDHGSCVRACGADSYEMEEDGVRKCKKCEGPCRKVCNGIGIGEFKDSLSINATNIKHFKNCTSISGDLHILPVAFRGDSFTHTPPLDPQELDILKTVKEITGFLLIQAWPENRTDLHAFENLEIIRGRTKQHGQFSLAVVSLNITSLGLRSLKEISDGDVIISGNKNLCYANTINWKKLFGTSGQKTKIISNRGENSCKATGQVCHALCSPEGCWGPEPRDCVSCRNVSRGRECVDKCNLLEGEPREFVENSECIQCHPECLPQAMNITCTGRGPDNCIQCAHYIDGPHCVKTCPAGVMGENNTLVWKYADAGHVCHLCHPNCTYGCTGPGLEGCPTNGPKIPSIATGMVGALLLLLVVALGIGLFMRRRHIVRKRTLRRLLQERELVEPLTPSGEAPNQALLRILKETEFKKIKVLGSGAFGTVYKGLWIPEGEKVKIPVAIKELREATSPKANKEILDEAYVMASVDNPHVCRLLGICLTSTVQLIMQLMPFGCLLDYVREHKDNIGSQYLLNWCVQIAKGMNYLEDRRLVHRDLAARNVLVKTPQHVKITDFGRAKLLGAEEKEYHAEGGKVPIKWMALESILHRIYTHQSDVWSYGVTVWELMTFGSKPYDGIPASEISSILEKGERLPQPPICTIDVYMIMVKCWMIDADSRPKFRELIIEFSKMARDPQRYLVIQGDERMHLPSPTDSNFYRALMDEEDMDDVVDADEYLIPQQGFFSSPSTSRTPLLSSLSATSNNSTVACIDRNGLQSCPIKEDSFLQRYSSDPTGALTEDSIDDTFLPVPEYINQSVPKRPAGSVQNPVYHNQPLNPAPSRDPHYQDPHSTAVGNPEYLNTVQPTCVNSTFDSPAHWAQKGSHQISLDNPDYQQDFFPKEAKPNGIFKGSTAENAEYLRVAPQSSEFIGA

K562 = assay: Antiproliferative activity against human K562 cells after 72 hrs by CellTiter-Glo assay; format: functional; conditions: K562, 72 h
[12] = Antiproliferative activity against human PF138 cells after 72 hrs by CellTiter-Glo assay; format: functional
MOLM-13 = assay: Antiproliferative activity against human MOLM13 cells after 72 hrs by CellTiter-Glo assay; format: functional; conditions: MOLM-13, 72 h

Question: For `C=CC(=O)Nc1cc(-n2c(=O)ccc3cnc4ccc(-c5ccccc5)cc4c32)ccc1C`, which IC50 [1] is on record?
Answer: 25.3 nM

Question: Which IC50 [1] does the source give for `C=CC(=O)Nc1cc(-n2c(=O)ccc3cnc4ccc(/C=C/c5ccccc5)cc4c32)ccc1C` here?
Answer: 5580 nM

Question: What about the IC50 [2] of the same compound?
Answer: 607 nM

Question: With `C=CC(=O)Nc1cc(-n2c(=O)ccc3cnc4ccc(-c5cn[nH]c5)cc4c32)ccc1C` as the compound, how does the Ratio [3] read?
Answer: 1.17 µM⁻¹ s⁻¹

Question: What about the Ki [4] of the same compound?
Answer: 2 nM

Question: And the Kinact [4]?
Answer: 0.14 min⁻¹

Question: With `C=CC(=O)Nc1cccc(-n2c(=O)ccc3cnc4ccc(-c5cn[nH]c5)cc4c32)c1` as the compound, how does the IC50 [1] read?
Answer: 224 nM

Question: And the IC50 [2]?
Answer: 293 nM

Question: What does the source list for `C=CC(=O)Nc1cc(-n2c(=O)ccc3cnc4ccc(-c5ccsc5)cc4c32)ccc1C`?
Answer: IC50 [1]: 38.6 nM; IC50 [2]: 342 nM

Question: Which IC50 [1] does the source give for `C=CC(=O)Nc1cc(-n2c(=O)ccc3cnc4ccc(-c5cnc6ccccc6c5)cc4c32)ccc1C` here?
Answer: 983 nM

Question: What about the IC50 [2] of the same compound?
Answer: 295 nM

Question: For `C=CC(=O)Nc1cc(-n2c(=O)ccc3cnc4ccc(-c5ccc(COc6cccc(C(F)(F)F)c6)cc5)cc4c32)ccc1C`, which IC50 [1] is on record?
Answer: 650 nM

Question: What about the IC50 [2] of the same compound?
Answer: 2060 nM

Question: For `C=CC(=O)Nc1cc(-n2c(=O)ccc3cnc4ccc(-c5ccoc5)cc4c32)ccc1C`, which IC50 [1] is on record?
Answer: 17.4 nM

Question: What about the IC50 [2] of the same compound?
Answer: 2090 nM

Question: With `C=CC(=O)N1CCC[C@@H](n2nc(-c3ccc(Oc4ccccc4)cc3)c3c(N)ncnc32)C1` [IBRUTINIB] as the compound, how does the GI50 (OCI-AML-3) read?
Answer: > 10 µM

Question: And the GI50 (Pfeiffer)?
Answer: 8.4 µM

Question: And the GI50 (LNCaP C4-2)?
Answer: > 10 µM

Question: What about the GI50 (CMK) of the same compound?
Answer: > 10 µM

Question: And the GI50 [5]?
Answer: 9.02 µM

Question: What about the GI50 (A-431) of the same compound?
Answer: > 10 µM

Question: What about the GI50 (NOMO-1) of the same compound?
Answer: > 10 µM

Question: And the GI50 (SU-DHL-2)?
Answer: 2200 nM

Question: And the GI50 [6]?
Answer: 8.93 µM

Question: What about the GI50 (NCI-H1975) of the same compound?
Answer: 1200 nM

Question: And the GI50 (NALM-6)?
Answer: > 10 µM

Question: What about the GI50 (Z-138) of the same compound?
Answer: > 10 µM

Question: And the GI50 (NCI-H460)?
Answer: > 10 µM

Question: And the GI50 (U-937)?
Answer: 8.5 µM

Question: And the GI50 [7]?
Answer: > 10 µM

Question: What about the GI50 (HEL) of the same compound?
Answer: 4 µM

Question: And the GI50 (A549)?
Answer: > 10 µM

Question: What about the GI50 (MOLM-14) of the same compound?
Answer: 1800 nM

Question: What about the GI50 (NB-4) of the same compound?
Answer: 7.5 µM

Question: What about the GI50 (U2932) of the same compound?
Answer: 4 µM

Question: And the GI50 (OCI-AML2)?
Answer: > 10 µM

Question: And the GI50 at 72 h [8]?
Answer: > 10 µM

Question: And the GI50 (HCT-116)?
Answer: > 10 µM

Question: What about the GI50 (NAMALVA) of the same compound?
Answer: 6 µM

Question: And the GI50 [9]?
Answer: 4.4 µM

Question: And the GI50 (JVM-2)?
Answer: > 10 µM

Question: And the GI50 (HL-60)?
Answer: 3.5 µM

Question: What about the GI50 (DU-145) of the same compound?
Answer: > 10 µM

Question: And the GI50 (NCI-H358)?
Answer: > 10 µM

Question: What about the GI50 [10] of the same compound?
Answer: > 10 µM

Question: And the GI50 (Rec1)?
Answer: > 10 µM

Question: What about the GI50 (HeLa) of the same compound?
Answer: > 10 µM

Question: And the GI50 [11]?
Answer: 2760 nM

Question: What about the GI50 (K562) of the same compound?
Answer: > 10 µM

Question: What about the GI50 [12] of the same compound?
Answer: 8.2 µM

Question: And the GI50 (MOLM-13)?
Answer: 1300 nM
